# In PubChem BioAssay (NCI):
#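 Interpolation was linear, between the two tested concentrations surrounding the appropriate level; five concentrations were tested over 48 hours in 96-well plates. TGI marks complete inhibition of growth.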
# Tests used:
# Test in all cases: NCI anticancer screen, dose series, 48 h
# [1] = test system: 786-0 renal
# [2] = test system: A498 renal
# [3] = test system: A549 NSCLC
# [4] = test system: ACHN renal
# [5] = test system: BT-549 breast
# [6] = test system: CAKI-1 renal
# [7] = test system: CCRF-CEM leukemia
# [8] = test system: COLO 205 colon
# [9] = test system: DU-145 prostate
# [10] = test system: EKVX NSCLC
# [11] = test system: HCC-2998 colon
# [12] = test system: HCT-116 colon
# [13] = test system: HCT-15 colon
# [14] = test system: HL-60(TB) leukemia
# [15] = test system: HOP-62 NSCLC
# [16] = test system: HOP-92 NSCLC
# [17] = test system: HS 578T breast
# [18] = test system: HT29 colon
# [19] = test system: IGROV1 ovarian
# [20] = test system: K-562 leukemia
# [21] = test system: KM12 colon
# [22] = test system: LOX IMVI melanoma
# [23] = test system: M14 melanoma
# [24] = test system: MALME-3M melanoma
# [25] = test system: MCF7 breast
# [26] = test system: MDA-MB-231 breast
# [27] = test system: MDA-MB-435
# [28] = test system: MDA-N
# [29] = test system: MOLT-4 leukemia
# [30] = test system: NCI-H226 lung
# [31] = test system: NCI-H23 lung
# [32] = test system: NCI-H460 lung
# [33] = test system: NCI-H522 lung
# [34] = test system: NCI/ADR-RES ovarian
# [35] = test system: OVCAR-3 ovarian
# [36] = test system: OVCAR-4 ovarian
# [37] = test system: OVCAR-5 ovarian
# [38] = test system: OVCAR-8 ovarian
# [39] = test system: PC-3 prostate
# [40] = test system: SF-268 CNS
# [41] = test system: SF-295 CNS
# [42] = test system: SF-539 CNS
# [43] = test system: SK-MEL-2 melanoma
# [44] = test system: SK-MEL-28 melanoma
# [45] = test system: SK-MEL-5 melanoma
# [46] = test system: SK-OV-3 ovarian
# [47] = test system: SN12C renal
# [48] = test system: SNB-19 CNS
# [49] = test system: SNB-75 CNS
# [50] = test system: SR leukemia
# [51] = test system: SW-620 colon
# [52] = test system: T-47D breast
# [53] = test system: TK-10 renal
# [54] = test system: U251 CNS
# [55] = test system: UACC-257 melanoma
# [56] = test system: UACC-62 melanoma
# [57] = test system: UO-31 renal
# [58] = test system: RPMI-8226 leukemia
compound,measurement,setting,value
CCCNc1[nH]c(C(=O)c2ccccc2)c(N)c1C(=S)Nc1ccccc1,TGI,[1],> 100 µM
same,TGI,[2],> 100 µM
same,TGI,[3],> 100 µM
same,TGI,[4],> 100 µM
same,TGI,[5],> 100 µM
same,TGI,[6],> 100 µM
same,TGI,[7],> 100 µM
same,TGI,[8],> 100 µM
same,TGI,[9],> 100 µM
same,TGI,[10],> 100 µM
same,TGI,[11],> 100 µM
same,TGI,[12],> 100 µM
same,TGI,[13],> 100 µM
same,TGI,[14],> 100 µM
same,TGI,[15],> 100 µM
same,TGI,[16],> 100 µM
same,TGI,[17],> 100 µM
same,TGI,[18],> 100 µM
same,TGI,[19],> 100 µM
same,TGI,[20],> 100 µM
same,TGI,[21],> 100 µM
same,TGI,[22],> 100 µM
same,TGI,[23],> 100 µM
same,TGI,[24],> 100 µM
same,TGI,[25],> 100 µM
same,TGI,[26],> 100 µM
same,TGI,[27],> 100 µM
same,TGI,[28],> 100 µM
same,TGI,[29],> 100 µM
same,TGI,[30],> 100 µM
same,TGI,[31],> 100 µM
same,TGI,[32],> 100 µM
same,TGI,[33],> 100 µM
same,TGI,[34],> 100 µM
same,TGI,[35],> 100 µM
same,TGI,[36],> 100 µM
same,TGI,[37],> 100 µM
same,TGI,[38],> 100 µM
same,TGI,[39],> 100 µM
same,TGI,[40],> 100 µM
same,TGI,[41],> 100 µM
same,TGI,[42],> 100 µM
same,TGI,[43],> 100 µM
same,TGI,[44],> 100 µM
same,TGI,[45],> 100 µM
same,TGI,[46],> 100 µM
same,TGI,[47],> 100 µM
same,TGI,[48],> 100 µM
same,TGI,[49],> 100 µM
same,TGI,[50],> 100 µM
same,TGI,[51],> 100 µM
same,TGI,[52],> 100 µM
same,TGI,[53],> 100 µM
same,TGI,[54],> 100 µM
same,TGI,[55],> 100 µM
same,TGI,[56],> 100 µM
same,TGI,[57],> 100 µM
Cc1ccc(Cc2nc(=S)[nH][nH]2)cc1,TGI,[1],> 100 µM
same,TGI,[2],> 100 µM
same,TGI,[3],> 100 µM
same,TGI,[4],> 100 µM
same,TGI,[5],> 100 µM
same,TGI,[6],> 100 µM
same,TGI,[7],> 100 µM
same,TGI,[8],> 100 µM
same,TGI,[9],> 100 µM
same,TGI,[10],> 100 µM
same,TGI,[11],> 100 µM
same,TGI,[12],> 100 µM
same,TGI,[13],> 100 µM
same,TGI,[14],97.9 µM
same,TGI,[15],> 100 µM
same,TGI,[16],> 100 µM
same,TGI,[17],> 100 µM
same,TGI,[18],> 100 µM
same,TGI,[19],> 100 µM
same,TGI,[20],> 100 µM
same,TGI,[21],> 100 µM
same,TGI,[22],> 100 µM
same,TGI,[23],> 100 µM
same,TGI,[24],> 100 µM
same,TGI,[25],> 100 µM
same,TGI,[26],> 100 µM
same,TGI,[27],> 100 µM
same,TGI,[28],> 100 µM
same,TGI,[29],> 100 µM
same,TGI,[30],> 100 µM
same,TGI,[31],> 100 µM
same,TGI,[32],> 100 µM
same,TGI,[34],> 100 µM
same,TGI,[35],> 100 µM
same,TGI,[36],96.5 µM
same,TGI,[37],> 100 µM
same,TGI,[38],> 100 µM
same,TGI,[39],> 100 µM
same,TGI,[41],> 100 µM
same,TGI,[42],> 100 µM
same,TGI,[43],> 100 µM
same,TGI,[44],> 100 µM
same,TGI,[45],> 100 µM
same,TGI,[46],> 100 µM
same,TGI,[47],> 100 µM
same,TGI,[48],> 100 µM
same,TGI,[49],> 100 µM
same,TGI,[50],> 100 µM
same,TGI,[51],> 100 µM
same,TGI,[52],> 100 µM
same,TGI,[53],> 100 µM
same,TGI,[54],> 100 µM
same,TGI,[55],> 100 µM
same,TGI,[56],> 100 µM
same,TGI,[57],> 100 µM
C/C(=N/OC(=O)c1cccc2c(=O)c3ccccc3[nH]c12)[C@H]1CC[C@H]2[C@@H]3CCC4=C/C(=N/OC(=O)c5cccc6c(=O)c7ccccc7[nH]c56)CC[C@]4(C)[C@H]3CC[C@]12C,TGI,[1],44.7 µM
same,TGI,[3],> 100 µM
same,TGI,[4],29.5 µM
same,TGI,[5],34.8 µM
same,TGI,[6],47.2 µM
same,TGI,[7],16.3 µM
same,TGI,[8],30.3 µM
same,TGI,[9],79.3 µM
same,TGI,[10],71.3 µM
same,TGI,[11],26.9 µM
same,TGI,[12],25 µM
same,TGI,[13],27 µM
same,TGI,[14],34 µM
same,TGI,[15],51.2 µM
same,TGI,[16],42.6 µM
same,TGI,[17],> 100 µM
same,TGI,[18],28.8 µM
same,TGI,[19],37.1 µM
same,TGI,[20],> 100 µM
same,TGI,[21],38.2 µM
same,TGI,[22],26.7 µM
same,TGI,[23],29.7 µM
same,TGI,[24],37.3 µM
same,TGI,[25],26.4 µM
same,TGI,[26],30.6 µM
same,TGI,[27],33.3 µM
same,TGI,[28],30.3 µM
same,TGI,[29],39.6 µM
same,TGI,[30],52.8 µM
same,TGI,[31],29.9 µM
same,TGI,[33],26.2 µM
same,TGI,[34],43.1 µM
same,TGI,[35],34.4 µM
same,TGI,[36],> 100 µM
same,TGI,[37],33.7 µM
same,TGI,[38],33.3 µM
same,TGI,[39],31.5 µM
same,TGI,[58],14.6 µM
same,TGI,[40],45.5 µM
same,TGI,[41],34.6 µM
same,TGI,[42],29.5 µM
same,TGI,[43],32.8 µM
same,TGI,[45],26.4 µM
same,TGI,[46],93.2 µM
same,TGI,[47],30.6 µM
same,TGI,[48],39.4 µM
same,TGI,[49],97.6 µM
same,TGI,[50],25.3 µM
same,TGI,[51],27.1 µM
same,TGI,[52],58.8 µM
same,TGI,[53],45.2 µM
same,TGI,[54],29.6 µM
same,TGI,[55],33.4 µM
same,TGI,[56],32.1 µM
same,TGI,[57],28.5 µM
